Assay results from patent US20210269479A1, “USE OF CY[…] FOR TREATING CANCER” (Hepion Pharmaceuticals, Inc., priority 2020, published 2021).

System: human precision cut liver slices (PCLS)
Test: RNA-Seq of PCLS, Nonstimulation Protocol (Non-stimulated + CRV vs Non-stimulated + Vehicle)
Type: cell-based
Method: PCLS were obtained from 5 human donors who underwent resection of liver cancer. Replicate slices were collected from healthy margins of the resections and cultured for 4 or 6 days depending on the experimental protocol. In the Nonstimulation Protocol slices were cultured for 6 days and treated for the entire period with DMSO vehicle or 5 μM CRV431. In the Stimulation Protocol slices were rested for 1 day and then administered the cytokines, TGFβ and PDGF-BB, for 3 days to stimulate inflammation and fibrosis. DMSO vehicle, CRV431 (1 and 5 μM), Alk5i (10 μM), obeticholic acid (5 μM), elafibranor (5 μM), resmetirom (5 μM), and Aramchol (5 μM) were administered individually as drug treatments in the Stimulation Protocol concurrent with TGFβ+PDGF-BB. Culture medium treatments were replaced daily.
(d) Gene expression by RNA-Seq. RNA sequencing of the complete transcriptome (30 million reads per sample) was conducted on vehicle and 5 μM CRV431 treatment groups from 3 donors both from the Nonstimulation and Stimulation Protocols. Data were analyzed by bioinformatics software programs to identify genes that were differentially expressed between vehicle and CRV431 treatments.
For the evaluation done for (d), 12 samples corresponding to 3 different donor slides which underwent 4 different treatments were studied. the comparisons carried out in this analysis are: (1) TGFb/PDGF+CRV vs TGFb/PDGF+Vehicle (V), and (2) Non-stimulated+CRV vs Non-stimulated+Vehicle.
Heatmaps were generated by plotting significant differently expressed genes for the comparison Non-stimulated+CRV and Non-stimulated+Vehicle (p-adjust<0.05, log fold change>0.5). First, the heatmap with the samples grouped by group (FIG. 7A) is shown in order to observe the different expression pattern present within the group (blue=vehicle; red=CRV). Then, the same significant genes arweree plotted into a heatmap (FIG. 7B), but the samples are now plotted grouped by donor in order to observe the differences between donors (blue=vehicle; red=CRV).
Significant differently expressed genes that were identified in the comparison Non-stimulated+CRV and Non-stimulated+Vehicle ([…], log fold change>0.5) are provided in Table 3. The fold changes shown are relative to the treatment CRV.
Nonstimulated+CRV431 vs Nonstimulated+Vehicle were then compared by donor. As shown in the PCA, there was a strong effect of the donor. Therefore, the analysis was repeated as in the previous comparison. […] In other words, there were at least 300 copies more in the treatment CRV than in the vehicle. After doing this selection individually for each donor, a venn diagram was plotted showing the overlapping between all three donors. […] So, there are at least 300 copies less in the treated group compared to the vehicle. After doing the selection individually for each donor, a venn diagram was plotted showing the overlapping between all three donors.

[1] = Non-stimulated + CRV vs Non-stimulated + Vehicle, 5 μM
[2] = absence of TGFβ+PDGF-BB, all donors

## CC[C@@H]1NC(=O)[C@H]([C@H](O)[C@H](C)CCCCCCNC(C)=O)N(C)C(=O)[C@H](C(C)C)N(C)C(=O)[C@H](CC(C)C)N(C)C(=O)[C@H](CC(C)C)N(C)C(=O)[C@@H](C)NC(=O)[C@H](C)NC(=O)[C@H](CC(C)C)N(C)C(=O)[C@H](C(C)C)NC(=O)[C@H](CC(C)C)N(C)C(=O)[C@@H](C)N(C)C1=O [CRV431]
[1]
  log2FoldChange, gene AC099668.1: 1.056
  log2FoldChange, gene ACOT9: 0.543
  log2FoldChange, gene ADGRD1: −1.126
  log2FoldChange, gene AFG1L: 1.327
  log2FoldChange, gene AGT: −0.627
  log2FoldChange, gene AKAP10: −1.249
  log2FoldChange, gene ALPK3: −0.621
  log2FoldChange, gene AP000347.1: 1.809
  log2FoldChange, gene AP003119.3: −0.67
  log2FoldChange, gene APBA1: −1.158
  log2FoldChange, gene AREG: 1.034
  log2FoldChange, gene ARVCF: −0.609
  log2FoldChange, gene C4B: −0.506
  log2FoldChange, gene CACUL1: −0.94
  log2FoldChange, gene CCDC149: 0.76
  log2FoldChange, gene CCNK: 0.545
  log2FoldChange, gene CD5L: 1.675
  log2FoldChange, gene CD180: 1.051
  log2FoldChange, gene CDH11: −0.915
  log2FoldChange, gene COL27A1: −0.545
  log2FoldChange, gene CXCL5: 0.663
  log2FoldChange, gene CXCL12: 0.623
  log2FoldChange, gene CYP3A4: −2.313
  log2FoldChange, gene CYP24A1: −1.499
  log2FoldChange, gene DAAM2: 1.498
  log2FoldChange, gene DANCR: 0.693
  log2FoldChange, gene DDX60: −0.739
  log2FoldChange, gene DGKD: −0.85
  log2FoldChange, gene DKK1: 1.939
  log2FoldChange, gene DNAJB9: 0.721
  log2FoldChange, gene DUS3L: 0.745
  log2FoldChange, gene ESM1: −1.157
  log2FoldChange, gene FANCI: −1.319
  log2FoldChange, gene FSTL1: −0.595
  log2FoldChange, gene GDPD5: −0.606
  log2FoldChange, gene GEM: −0.975
  log2FoldChange, gene GMPPA: 0.768
  log2FoldChange, gene GMPPB: 0.715
  log2FoldChange, gene GOLGA8A: −0.669
  log2FoldChange, gene GYG1: 0.94
  log2FoldChange, gene HID1: 0.716
  log2FoldChange, gene HLA-F: −0.727
  log2FoldChange, gene HM13: 0.528
  log2FoldChange, gene HOOK1: −0.998
  log2FoldChange, gene IFI6: −1.273
  log2FoldChange, gene IFI44L: −2.254
  log2FoldChange, gene IFIT2: −0.812
  log2FoldChange, gene ISLR: −0.815
  log2FoldChange, gene KAT14: 0.874
  log2FoldChange, gene KIAA0513: −0.98
  log2FoldChange, gene KRT7: 0.563
  log2FoldChange, gene KRT81: 1.137
  log2FoldChange, gene L3MBTL1: −2.03
  log2FoldChange, gene LGALS3BP: −0.556
  log2FoldChange, gene LILRB4: 0.909
  log2FoldChange, gene LILRB5: 1.075
  log2FoldChange, gene MANF: 0.682
  log2FoldChange, gene MEG3: −0.682
  log2FoldChange, gene MIR194-2HG: −2.973
  log2FoldChange, gene MLLT10: −1.19
  log2FoldChange, gene MPEG1: 0.584
  log2FoldChange, gene MS4A4A: 0.735
  log2FoldChange, gene MT-CO1: −1.083
  log2FoldChange, gene MTCO1P12: −1.183
  log2FoldChange, gene NCOA3: −1.438
  log2FoldChange, gene NOTCH3: −0.564
  log2FoldChange, gene NREP: −0.638
  log2FoldChange, gene NUCB2: 0.851
  log2FoldChange, gene NUGGC: 1.136
  log2FoldChange, gene NUMA1: −0.537
  log2FoldChange, gene PALM2-AKAP2: −1.035
  log2FoldChange, gene PAN2: 0.742
  log2FoldChange, gene PDE4C: −0.669
  log2FoldChange, gene PDZD2: −1.468
  log2FoldChange, gene PEG10: 1.463
  log2FoldChange, gene PFKFB3: −0.545
  log2FoldChange, gene PGM3: 0.751
  log2FoldChange, gene PLTP: −0.584
  log2FoldChange, gene PLXNA2: 1.719
  log2FoldChange, gene POU2F2: 2.856
  log2FoldChange, gene R3HDM2: −0.678
  log2FoldChange, gene RAD51D: 1.387
  log2FoldChange, gene RARRES2: −0.766
  log2FoldChange, gene RFX1: −1.495
  log2FoldChange, gene SCRIB: 0.661
  log2FoldChange, gene SEC11C: 0.844
  log2FoldChange, gene SEC24D: 0.58
  log2FoldChange, gene SEC61B: 0.602
  log2FoldChange, gene SELL: 2.035
  log2FoldChange, gene SERPINB2: 1.255
  log2FoldChange, gene SIPA1L3: −0.652
  log2FoldChange, gene SKI: −0.931
  log2FoldChange, gene SLC2A1: −0.635
  log2FoldChange, gene SLC29A1: −0.53
  log2FoldChange, gene SNHG3: 0.665
  log2FoldChange, gene SOWAHC: −0.601
  log2FoldChange, gene SPCS3: 0.715
  log2FoldChange, gene SRGAP2B: −0.729
  log2FoldChange, gene SSR4: 0.564
  log2FoldChange, gene STX16: 0.577
  log2FoldChange, gene SYNGAP1: −1.718
  log2FoldChange, gene SYNRG: −0.74
  log2FoldChange, gene TMEM154: −1.351
  log2FoldChange, gene TNFSF14: −0.681
  log2FoldChange, gene TRPV6: 0.83
  log2FoldChange, gene TTLL3: −0.579
  log2FoldChange, gene UHRF2: −0.778
  log2FoldChange, gene UNKL: −0.916
  log2FoldChange, gene WNK1: −0.698
  log2FoldChange, gene XAF1: −0.725
[2]
  fold change in RNA, DKK1: +3.8 fold
  fold change in RNA, ESM1: −2.2 fold
  fold change in RNA, IFI44L: −4.8 fold
  fold change in RNA, NCOA3: −2.7 fold
  fold change in RNA, mIR-194-2: −7.9 fold
